The values that follow come from patent US3949090A, “Methods and compositions for improving feed efficiency in ruminants using dithiooxamide” (SmithKline Corporation, priority 1974, dated 1976).

Assay [1] relates to Microbial Deaminase (strained rumen fluid). Put plainly: In vitro microbial deaminase inhibition (rumen fluid, alfalfa hay, grain mixture; 4 hours). Type of assay: cell-based. As to conditions: Table III, dithiooxamide 0 ppm, 240 min. The method, then:
(§1) The in vitro fermentation system contained 75 ml. strained rumen fluid, 200 mg, alfalfa hay, 800 mg. of a crude protein grain mixture, 0.8 to 1.6 mM of each of 10 essential amino acids (threonine, valine, methionine, isoleucine, leucine, phelylalanine, tryptophan, lysine and arginine), and 0 to 50 ppm dithiooxamide. Flasks were incubated for 4 hours with effects upon amino acid deamination assessed as described for the previous system. Using standard chromatographic techniques, effects upon methanogenesis and upon the pattern of volatile fatty acid production were determined.
(§2) ^1 In vitro fermentation system contained 75 ml. strained rumen fluid
(§3) 200 mg. alfalfa hay, 800 mg. grain mixture (16% crude protein) and 1.6 mM
(§4) of each of ten essential amino acids. Flasks were incubated for four
(§5) 200 mg. alfalfa hay, 800 mg. grain mixture (16% crude protein) and 0.8 mM

For assay [2], the system named is volatile fatty acid production (strained rumen fluid). The assay can be described thus: In vitro volatile fatty acid production. As to conditions: Table III, dithiooxamide 0 ppm; for Volatile Fatty Acids (molar distribution, %): Propionate: control 15; for Volatile Fatty Acids (molar distribution, %): Butyrate: control 21; for Volatile Fatty Acids (molar distribution, %): Acetate: control 64; for Volatile Fatty Acid Carbon: control 125. Type of assay: cell-based. The method, then: as §1, §2, §3, §4, §5

Assay [3] relates to gas production (strained rumen fluid). Put plainly: In vitro gas production. Type of assay: cell-based. As to conditions: Table III, dithiooxamide 0 ppm, control 65. The method, then: as §1, §2, §5, §4
The test system of assay [4] is methanogenesis (strained rumen fluid). The assay can be described thus: In vitro effects upon methanogenesis. Type of assay: cell-based. The conditions noted are these: Table III, dithiooxamide 0 ppm. How it is done:
as §1, §2, §3, §4, §5

In the next assay the test system is protein deposition. As to conditions: compared with acetate; Potter et al., Eskeland et al.; cited from earlier work.
The test system of a further assay is sheep. The conditions noted are these: amino acid supplement; cited from earlier work.

As for `O=S(=O)([O-])[O-].[Cu+2]` [Copper Sulfate, reference compound], the “MDI (%)” value was 3% in assay [1] (copper sulfate .067 ppm) and 6% in assay [1] (copper sulfate .333 ppm). Also, the “Volatile Fatty Acids (molar distribution, %): Propionate” value in assay [2] (copper sulfate .067 ppm) and in assay [2] (copper sulfate .333 ppm) was 15% throughout. Moreover, the “Volatile Fatty Acids (molar distribution, %): Butyrate” value is 21% in assay [2] (copper sulfate .067 ppm) and 22% in assay [2] (copper sulfate .333 ppm). Besides, the “Volatile Fatty Acids (molar distribution, %): Acetate” value in assay [2] (copper sulfate .067 ppm) turned out to be 64%; in assay [2] (copper sulfate .333 ppm), 63%. For the same compound, the “Volatile Fatty Acid Carbon” value turned out to be 123 μ moles/ml in assay [2] (copper sulfate .067 ppm) and 121 μ moles/ml in assay [2] (copper sulfate .333 ppm). The figures for the “Gas Production” value in assay [3] (copper sulfate .067 ppm) and in assay [3] (copper sulfate .333 ppm) were 65 cc and 64 cc, respectively. Also, the “Methane Inhibition (%)” value in assay [4] (copper sulfate .067 ppm) is recorded as -5%; in assay [4] (copper sulfate .333 ppm), -11%.
For the compound `O=S(=O)([O-])[O-].[Co+2]` [Cobalt Sulfate, reference compound], the “MDI (%)” value in assay [1] (cobalt sulfate .013 ppm) came to 1%; in assay [1] (cobalt sulfate .067 ppm), 2%. For the same compound, the “Volatile Fatty Acids (molar distribution, %): Propionate” value in assay [2] (cobalt sulfate .013 ppm) and in assay [2] (cobalt sulfate .067 ppm) was 15% in each case. The “Volatile Fatty Acids (molar distribution, %): Butyrate” value in assay [2] (cobalt sulfate .013 ppm) and in assay [2] (cobalt sulfate .067 ppm) was 22% in each case. Besides, the “Volatile Fatty Acids (molar distribution, %): Acetate” value in assay [2] (cobalt sulfate .013 ppm) and in assay [2] (cobalt sulfate .067 ppm) was 63% each time. In addition, the “Volatile Fatty Acid Carbon” value worked out at 120 μ moles/ml in assay [2] (cobalt sulfate .013 ppm) and 127 μ moles/ml in assay [2] (cobalt sulfate .067 ppm). The “Gas Production” value in assay [3] (cobalt sulfate .013 ppm) and in assay [3] (cobalt sulfate .067 ppm) was 65 cc in each case. Further, the “Methane Inhibition (%)” value in assay [4] (cobalt sulfate .013 ppm) is 1%; in assay [4] (cobalt sulfate .067 ppm), -5%.
With `CCC(=O)O` [propionate], in the assay on protein deposition, the “energy metabolites for protein deposition in sheep (in words)” value is recorded as “better energy metabolites than acetate for protein deposition in sheep”.
Turning to `CSCC[C@H](N)C(=O)O` [Methionine], in the assay with sheep, the “quality of wool in sheep (in words)” value is given as “particularly useful in increasing the quality of wool in sheep”.
